Assay results: PubChem BioAssay (NCI)
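How tested: cells in 96-well plates exposed to compound for 48 hours at five concentrations. GI50 marks 50% less growth. TGI: total growth inhibition.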

Assays:
Test in all cases: growth of human tumour cells (NCI), 48 h
[1] = system: NCI-H23 lung
[2] = system: NCI-H460 lung
[3] = system: NCI-H522 lung
[4] = system: NCI/ADR-RES ovarian
[5] = system: OVCAR-3 ovarian
[6] = system: OVCAR-4 ovarian
[7] = system: OVCAR-5 ovarian
[8] = system: OVCAR-8 ovarian
[9] = system: PC-3 prostate
[10] = system: RPMI-8226 leukemia
[11] = system: RXF 393 renal
[12] = system: SF-268 CNS
[13] = system: SF-295 CNS
[14] = system: SF-539 CNS
[15] = system: SK-MEL-2 melanoma
[16] = system: SK-MEL-28 melanoma
[17] = system: SK-MEL-5 melanoma
[18] = system: SK-OV-3 ovarian
[19] = system: SN12C renal
[20] = system: SNB-19 CNS
[21] = system: SNB-75 CNS
[22] = system: SR leukemia
[23] = system: SW-620 colon
[24] = system: T-47D breast
[25] = system: TK-10 renal
[26] = system: U251 CNS
[27] = system: UACC-257 melanoma
[28] = system: UACC-62 melanoma
[29] = system: UO-31 renal

Q: `CCC(=C(c1ccc(OCCN2CCCCCC2)cc1)c1ccc(OCCN2CCCCCC2)cc1)c1ccc(Cl)cc1` was tested. Which GI50 [1] did it give?
A: The GI50 was 3670 nM.

Q: And the TGI [1]?
A: Its TGI is 8190 nM.

Q: And the GI50 [2]?
A: Its GI50 is 645 nM.

Q: What about the TGI [2] of the same compound?
A: Its TGI is 1250 nM.

Q: And the GI50 [3]?
A: The GI50 was 3540 nM.

Q: What about the TGI [3] of the same compound?
A: Its TGI is 8210 nM.

Q: And the GI50 [4]?
A: Its GI50 is 1930 nM.

Q: What about the TGI [4] of the same compound?
A: Its TGI is 6520 nM.

Q: And the GI50 [5]?
A: The GI50 was 947 nM.

Q: And the TGI [5]?
A: Its TGI is 3010 nM.

Q: And the GI50 [6]?
A: Its GI50 is 3900 nM.

Q: And the TGI [6]?
A: The TGI was 8710 nM.

Q: What about the GI50 [7] of the same compound?
A: The GI50 was 3730 nM.

Q: And the TGI [7]?
A: Its TGI is 8250 nM.

Q: What about the GI50 [8] of the same compound?
A: Its GI50 is 4280 nM.

Q: What about the TGI [8] of the same compound?
A: The TGI was 9410 nM.

Q: And the GI50 [9]?
A: Its GI50 is 1700 nM.

Q: And the TGI [9]?
A: Its TGI is 6140 nM.

Q: And the GI50 [10]?
A: Its GI50 is 749 nM.

Q: And the TGI [10]?
A: The TGI was 1640 nM.

Q: What about the GI50 [11] of the same compound?
A: Its GI50 is 754 nM.

Q: What about the TGI [11] of the same compound?
A: Its TGI is 2250 nM.

Q: What about the GI50 [12] of the same compound?
A: The GI50 was 2330 nM.

Q: What about the TGI [12] of the same compound?
A: Its TGI is 7470 nM.

Q: What about the GI50 [13] of the same compound?
A: The GI50 was 644 nM.

Q: What about the TGI [13] of the same compound?
A: Its TGI is 1310 nM.

Q: What about the GI50 [14] of the same compound?
A: Its GI50 is 643 nM.

Q: And the TGI [14]?
A: The TGI was 1370 nM.

Q: And the GI50 [15]?
A: The GI50 was 3960 nM.

Q: What about the TGI [15] of the same compound?
A: Its TGI is 8630 nM.

Q: What about the GI50 [16] of the same compound?
A: Its GI50 is 623 nM.

Q: What about the TGI [16] of the same compound?
A: Its TGI is 1200 nM.

Q: And the GI50 [17]?
A: The GI50 was 722 nM.

Q: What about the TGI [17] of the same compound?
A: The TGI was 1730 nM.

Q: What about the GI50 [18] of the same compound?
A: Its GI50 is 4230 nM.

Q: And the TGI [18]?
A: The TGI was 8590 nM.

Q: And the GI50 [19]?
A: The GI50 was 3440 nM.

Q: What about the TGI [19] of the same compound?
A: Its TGI is 8580 nM.

Q: What about the GI50 [20] of the same compound?
A: The GI50 was 833 nM.

Q: And the TGI [20]?
A: Its TGI is 2340 nM.

Q: What about the GI50 [21] of the same compound?
A: The GI50 was 1970 nM.

Q: What about the TGI [21] of the same compound?
A: Its TGI is 6850 nM.

Q: What about the GI50 [22] of the same compound?
A: The GI50 was 585 nM.

Q: And the TGI [22]?
A: Its TGI is 1340 nM.

Q: What about the GI50 [23] of the same compound?
A: The GI50 was 555 nM.

Q: And the TGI [23]?
A: Its TGI is 1210 nM.

Q: What about the GI50 [24] of the same compound?
A: Its GI50 is 649 nM.

Q: What about the TGI [24] of the same compound?
A: The TGI was 5310 nM.

Q: And the GI50 [25]?
A: Its GI50 is 4370 nM.

Q: And the TGI [25]?
A: Its TGI is 9000 nM.

Q: What about the GI50 [26] of the same compound?
A: The GI50 was 597 nM.

Q: What about the TGI [26] of the same compound?
A: Its TGI is 1150 nM.

Q: What about the GI50 [27] of the same compound?
A: Its GI50 is 651 nM.

Q: What about the TGI [27] of the same compound?
A: Its TGI is 1400 nM.

Q: And the GI50 [28]?
A: The GI50 was 664 nM.

Q: And the TGI [28]?
A: Its TGI is 1680 nM.

Q: What about the GI50 [29] of the same compound?
A: The GI50 was 1720 nM.

Q: And the TGI [29]?
A: Its TGI is 6670 nM.
